ChEMBL document CHEMBL4304762, “De Novo Design of Boron-Based Peptidomimetics as Potent Inhibitors of Human ClpP in the Presence of Human ClpX” (J Med Chem, 2019)

Assays:
[1] = Inhibition of human ClpP expressed in Escherichia coli SG1146 cells/His6-tagged TEV-fused human ClpX expressed in Escherichia coli B21 Gold DE3 cells complex formation using FITC-casein as substrate incubated for 60 mins and measured at 20 secs time interval for 90 mins by fluorescence assay
[2] = molecular target: ATP-dependent Clp protease proteolytic subunit, mitochondrial (Homo sapiens, UniProt Q16740); assay: Inhibition of human ClpP expressed in Escherichia coli SG1146 cells using N-acetyl-Trp-Leu-Ala-AMC as substrate incubated for 1 hr and measured at 20 secs time interval for 90 mins by fluorescence assay
ATP-dependent Clp protease proteolytic subunit, mitochondrial, sequence (Q16740 whole entry): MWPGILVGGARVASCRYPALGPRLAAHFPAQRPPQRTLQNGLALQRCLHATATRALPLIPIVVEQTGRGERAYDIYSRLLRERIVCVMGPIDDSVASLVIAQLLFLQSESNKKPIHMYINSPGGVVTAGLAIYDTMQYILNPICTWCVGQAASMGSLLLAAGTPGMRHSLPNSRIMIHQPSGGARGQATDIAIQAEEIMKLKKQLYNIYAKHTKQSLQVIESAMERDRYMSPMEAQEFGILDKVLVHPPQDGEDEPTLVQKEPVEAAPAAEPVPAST

| IC50 [1] [nM] | IC50 [2] | IC50 ([2]; read-out: IC50) [nM] | Compound |
| --- | --- | --- | --- |
| 1000 |  |  | CC(C)C[C@H](NC(=O)[C@H](CC(C)C)NC(=O)c1ccc(F)c([N+](=O)[O-])c1)B(O)O |
| 800 |  |  | COc1ccc(C(=O)N[C@@H](CC(C)C)C(=O)N[C@@H](CC(C)C)B(O)O)c(Cl)c1 |

Further lines, the compound ahead of its results:

| Compound | IC50 [1] [nM] | IC50 [2] | IC50 ([2]; read-out: IC50) [nM] |
| --- | --- | --- | --- |
| COc1ccc(C(=O)NC(CC(C)C)C(=O)NC(Cc2ccccc2)B(O)O)c(Cl)c1 (stereo unspecified) |  | Not Active | 118000 |
| CC(C)C[C@H](NC(=O)[C@H](CC(C)C)NC(=O)c1ccccc1-c1ccccc1)B(O)O | 900 |  |  |
| CC(C)CC(NC(=O)C(CC(C)C)NC(=O)C1(c2ccccc2)CC1)B(O)O (stereo unspecified) |  | Not Active |  |
